From patent US20090286720A1, “PHARMACEUTICAL COMPOSITION FOR THE DIAGNOSIS, PREVENTION OR TREATMENT OF A TUMORAL PATHOLOGY COMPRISING AN AGENT MODULATING THE POLYMERIZATION STATE OF ACTIN” (priority 2001, published 2009)
Starred links: 1 amine or outer side, 2 acyl side, 3 side chain; linkers in the order of their positions; H or OH if unused. Non-standard residues stand in square brackets, D forms with d. Residues, ends and D or L forms follow the SMILES beside them. X1 = CC[C@H](C)[C@H](OC(=O)[C@@H](C)[C@@H](CC)N[*:1])C(=O)[*:2]; X2 = C[C@H](N[*:1])C(=O)C(C)(C)C(=O)[*:2]; NMeY = CN[C@@H](Cc1ccc(O)cc1)C(=O)O; NMeL = CN[C@@H](CC(C)C)C(=O)O; NMeV = CN[C@H](C(=O)O)C(C)C

How the values were obtained:
[1] = system: EWS-Fli cells; experiment: Morphological modification of EWS-Fli cells (actin filaments stained with phalloidin-FITC); assay type: cell-based, murine; conditions: FIG. 12
Procedure: The cells (5×10^3) were cultured on glass slides 10 mm in diameter and kept in culture for 24 hours. After fixation (3% paraformaldehyde) and permeabilization (0.2% TritonX100), the actin filaments of the cells were immunostained by phalloidin coupled to FITC. Untreated NIH3T3; NIH3T3 transfected by EWS-Fli (EF); EF incubated in the presence of 10 μM or 100 μM of jasplakinolide; EF incubated with 10 μM or 20 μM of D11 (FIG. 12).

[2] = system: actin; experiment: In vitro measurement of actin polymerization by fluorescence anisotropy in EWS-Fli cell extracts; assay type: biochemical; conditions: dolastatin 11 added in the polymerization buffer of EWS-Fli cell extracts; deficit versus NIH3T3 extracts; FIG. 11
Procedure: Cell extracts of NIH3T3 cells or EWS-Fli cells were brought into the presence of actin Alexa 488 in a buffer G ([…] pH 8.1; 170 μM CaCl2; 170 μM DTT; 170 μM ATP). The polymerization reaction was triggered by addition of a buffer P (KCl 51 mM, MgCl2 1 mM and ATP 0.5 mM). Dolastatin (μM) was added to the cell extracts of the EWS-Fli cells at the same time as the buffer P. Polymerization of actin was monitored by fluorescence anisotropy on a Beacon 2000. The results obtained are illustrated in FIG. 11.

[3] = system: NIH3T3 cells; experiment: Morphological modification of NIH3T3 cells (actin filaments stained with phalloidin-FITC); assay type: cell-based, murine; conditions: same concentrations (10 or 20 nM); FIG. 12
Procedure: The cells (5×10^3) were cultured on glass slides 10 mm in diameter and kept in culture for 24 hours. After fixation (3% paraformaldehyde) and permeabilization (0.2% TritonX100), the actin filaments of the cells were immunostained by phalloidin coupled to FITC. […]

[4] = system: NIH3T3 cells; experiment: Toxicity of dolastatin-11 by MTT test on NIH3T3 cells; assay type: cell-based, murine; conditions: low concentrations (10 or 20 nM), FIG. 13
Procedure: (§1) The cells (10^4 per well) were cultured in 96-well plates in the presence of different concentrations of D11. Monitoring of the toxicity of D11 in relation to time was performed by means of an MTT test on the NIH3T3 cells (A) and the EWS-Fli cells (B). The results are illustrated in FIG. 13.

[5] = system: EWS-Fli cells; experiment: Toxicity of dolastatin-11 by MTT test on EWS-Fli cells; assay type: cell-based, murine; conditions: low concentrations (10 or 20 nM), FIG. 13
Procedure: as §1

[6] = system: EWS-Fli cells; experiment: Development of tumors in the nude mouse after subcutaneous injection of EWS-Fli cells; assay type: in vivo; conditions: nude mice, 10 μg/kg intravenous on 5th, 8th and 11th days after EWS-Fli cell injection, measured on 28th day; FIG. 14
Procedure: Twenty-four hours after irradiation (5 Gy) of the mice, the EWS-Fli cells (10^6) were inoculated via the subcutaneous route. The mice were then separated into two lots, with the first lot corresponding to the untreated mice and the second lot to the mice having received three injections of dolastatin 11 via the intravenous route (10 μg/kg) on the 5th, 8th and 11th days after injection of the EWS-Fli cells. […]

[7] = Survival of the mice (tolerated dose); conditions: intravenous

SMILES	effect on the cytoskeleton ([1]; EWS-Fli cells incubated with 10 μM or 100 μM of jasplakinolide)	capacity of cell extracts to polymerize actin (fluorescence anisotropy) [2]	effect on the cytoskeleton ([1]; EWS-Fli cells incubated with 10 μM or 20 μM of D11)	contact structures between the cells ([1]; EWS-Fli cells, 10 or 20 nM)	stress fibers and morphology of the cells ([1]; EWS-Fli cells, 10 or 20 nM)	morphology of NIH3T3 cells [3]	cytotoxicity or cytostaticity (MTT test) [4]	cytotoxicity or cytostaticity (MTT test) [5]	development of tumors [6]	dose used (10 μg/kg) relative to the dose not affecting survival of the mice [7]
C/C1=C\[C@H](C)C[C@H](C)OC(=O)C[C@H](c2ccc(O)cc2)NC(=O)[C@@H](Cc2c(Br)[nH]c3ccccc23)N(C)C(=O)[C@H](C)NC(=O)[C@@H](C)C1 [jasplakinolide]	effect	–	–	–	–	–	–	–	–	–
CC[C@H](C)[C@@H]1OC(=O)[C@@H](C)[C@@H](CC)NC(=O)[C@H](C)NC(=O)C(C)(C)C(=O)[C@H](C)NC(=O)[C@H](Cc2ccc(OC)cc2)N(C)C(=O)[C@H](C(C)C)N(C)C(=O)CNC(=O)[C@H](CC(C)C)N(C)C(=O)CNC1=O [dolastatin 11] (cyclo(A[X1]G[NMeL]G[NMeV][NMeY](Me)[X2]))	–	can compensate in part for this deficit	effect	reestablished the contact structures between the cells	restored the stress fibers of the cells with a morphology close to that of NIH3T3 cells	did not modify in the least	no cytotoxicity or cytostaticity effects were observed	no cytotoxicity or cytostaticity effects were observed	markedly delayed	five times weaker than the dose not affecting survival of the mice
